Marks after values point to notes of the source that are not given here.
Experiments:
[1] = test system: carrageenan-induced rat paw edema; assay: carrageenan-induced rat paw edema; format: in vivo; details: i.p. 0.15 mmol/kg, 3.5 h post carrageenan, female rats, vs controls given carrageenan only; for inhibition in vivo at 150 µmol/kg: Rattus norvegicus, ip, 3.5 h
Protocol: Carrageenan-induced inflammation model has significant value for evaluating anti-inflammatory agents. Carrageenan administration causes an acute and local inflammatory response. In the early phase (0–1 h), bradykinin, histamine, tachykinins, complement and reactive oxygen and nitrogen species are involved, whereas prostaglandins and various cytokines such as IL-1β, TNF-α are released in the second phase, more than one hour after administration.
Total of 0.1 mL of an aqueous solution of carrageenan (1% w/v) was injected i.d. into the right hind paw of rats, with the left paw serving as control. The tested compounds (suspended in water with a few drops of Tween 80) were given i.p. (0.15 mmol/kg) 5 min before the carrageenan administration. After 3.5 h, the hind paws were excised and weighed separately. The produced edema was estimated as paw weight increase.

soybean LOX = target: T1, soybean LOX (Glycine max, UniProt P08170); assay: inhibition of soybean lipoxygenase; format: biochemical; details: for IC50: after 7 min of incubation, sodium linoleate 100 μM, pH 9.0, 28 °C; for % inhibition of lipoxygenase: highest soluble concentration
T1 construct: purchased Sigma (St. Louis, MO, USA)
T1 sequence (P08170 1-839): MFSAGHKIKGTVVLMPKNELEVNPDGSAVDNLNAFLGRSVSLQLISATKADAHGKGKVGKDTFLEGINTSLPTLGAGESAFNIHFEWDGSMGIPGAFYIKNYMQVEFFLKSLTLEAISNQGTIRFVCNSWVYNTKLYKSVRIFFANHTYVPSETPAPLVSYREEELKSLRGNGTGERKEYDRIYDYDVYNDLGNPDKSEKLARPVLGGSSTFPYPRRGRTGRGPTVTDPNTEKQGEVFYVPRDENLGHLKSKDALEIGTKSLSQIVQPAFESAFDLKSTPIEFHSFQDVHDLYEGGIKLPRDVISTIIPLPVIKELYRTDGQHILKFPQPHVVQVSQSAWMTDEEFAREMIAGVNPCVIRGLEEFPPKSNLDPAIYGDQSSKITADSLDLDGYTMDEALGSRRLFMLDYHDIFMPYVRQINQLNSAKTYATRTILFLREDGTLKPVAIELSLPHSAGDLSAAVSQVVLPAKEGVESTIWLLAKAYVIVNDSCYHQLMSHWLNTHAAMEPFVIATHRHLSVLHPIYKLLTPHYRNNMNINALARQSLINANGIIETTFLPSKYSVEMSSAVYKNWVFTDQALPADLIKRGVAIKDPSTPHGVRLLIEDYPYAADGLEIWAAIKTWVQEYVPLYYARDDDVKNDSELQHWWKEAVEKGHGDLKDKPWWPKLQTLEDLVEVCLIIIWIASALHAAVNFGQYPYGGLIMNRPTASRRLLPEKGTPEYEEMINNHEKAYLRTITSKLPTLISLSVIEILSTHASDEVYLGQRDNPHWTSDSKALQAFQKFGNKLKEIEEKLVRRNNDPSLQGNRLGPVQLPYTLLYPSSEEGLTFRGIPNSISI
Protocol: Soybean LOX, because of structural and functional similarities with mammalian LOXs, is commonly used for the study of anti-inflammatory agents.
The reaction mixture contained (final concentration) the test compounds, dissolved in ethanol (10–300 μM), or the solvent (control), soybean LOX, dissolved in 0.9% NaCl solution (250 u/mL) and sodium linoleate (100 μM), in Tris–HCl buffer, pH 9.0. […] For the estimation of the type of inhibition, the above experiments were repeated, using 1 mM sodium linoleate, which is higher than the saturating substrate concentration.

ovine COX-1 = test system: T2, ovine COX-1; assay: COX Inhibitor Screening Assay kit, COX-1; format: biochemical; details: compound 0.05 μM, arachidonic acid 0.1 μM
T2 construct: purchased Cayman Chemical Co., Ann Arbor, MI, USA
Description: […]. κ-Carrageenan and lipoxygenase type I-B from soybean were purchased from Sigma (St. Louis, MO, USA). COX inhibition was estimated using the “COX Inhibitor Screening Assay” kit (Cayman Chemical Co., Ann Arbor, MI, USA). For the in vivo experiments, female Wistar rats (160–180 g, 4–5 months old) were kept in the Centre of the School of Veterinary Medicine (EL54 BIO42), Aristotelian University of Thessaloniki, which is registered by the official state veterinary authorities (presidential degree 56/2013, in harmonization with the European Directive 2010/63/EEC). The Animal Ethics Committee of the Prefecture of Central Macedonia (no. 270079/2500) approved the experimental protocols.
(§1) The effect of compounds on COX-1 and COX-2 activity was measured using a commercial kit and applying the instructions of the manufacturer. The kit uses ovine COX-1 and human recombinant COX-2 enzymes. The assay measures PGF2a produced by SnCl2 reduction of COX-derived PGH2. The prostanoid product was quantified via enzyme immunoassay using a broadly specific antibody that binds to all the major prostaglandin compounds.

[2] = preliminary stability in acetone-water (TLC); format: physicochemical; details: 4:1 acetone-water, 1 mM, 37 °C, up to 72 h
Protocol: (§2) In a preliminary stability control experiment, compound 16, with the highest anti-inflammatory activity, was dissolved in an acetone-water mixture and incubated for 72 h at 37 °C. Samples were tested by thin layer chromatography (TLC) at the time of the preparation and after 2.5, 5, 24, 48, and 72 h. The same experiment was repeated, but plasma from a healthy rat was added, and tested by TLC at the time of preparation and after 24 h of incubation at 37 °C.
(§3) A solution of 16 in a 4:1 acetone–water mixture (1 mM) was prepared and 5 μL of this were applied on a TLC silica gel aluminum sheet and developed with petroleum ether-ethyl acetate (1:1), at the time of preparation and after 2.5, 5, 24, 48, and 72 h of incubation (37 °C). The same experiment was repeated, adding 1 mL of rat plasma. TLC was performed at the time of preparation and after 24 h.

[3] = preliminary stability with rat plasma (TLC); format: in vitro ADME; details: acetone-water with rat plasma added, 37 °C, 24 h
Protocol: as §2, §3

[4] = test system: rat hepatic microsomal membranes; assay: Fe(II)-ascorbate induced lipid peroxidation of rat hepatic microsomal membranes; details: 1 mM, after 45 min of incubation
Protocol: Enzymatically inactivated rat hepatic microsomal membranes, rich in polyunsaturated fatty acids, were used and peroxidation was induced by Fe(II)-ascorbate. Compounds 21 and 22, expected to exert antioxidant activity due to the tyrosine phenolic group, were tested.
The peroxidation of heat-inactivated (90°, 90 s) rat liver microsomal fraction was induced by ascorbic acid (0.2 mM) and ferrous sulphate (10 μΜ). The studied compounds, in dimethylsulfoxide, were added at 1 mM. Aliquots were taken from the incubation mixture (37 °C) for 45 min. Lipid peroxidation was assessed spectrophotometrically (535/600 nm) as 2-thiobarbituric acid reactive material.

human recombinant COX-2 = test system: T3, human recombinant COX-2; assay: COX Inhibitor Screening Assay kit, COX-2; format: biochemical; details: compound 0.05 μM, arachidonic acid 0.1 μM
T3 construct: purchased Cayman Chemical Co., Ann Arbor, MI, USA
Protocol: COX inhibition was estimated using the “COX Inhibitor Screening Assay” kit (Cayman Chemical Co., Ann Arbor, MI, USA).
as §1

Compound	inhibition in vivo at 150 µmol/kg [1]	IC50 (soybean LOX)	melting point	further results
COC(=O)CCNC(=O)C(C)c1ccc(CC(C)C)cc1 (stereo not shown) [Compound 5a]	14%			
COC(=O)C1CCCN1C(=O)C(C)c1ccc(CC(C)C)cc1 (stereo not shown) [Compound 8a]	20%			
COC(=O)C(C)NC(=O)Cc1c[nH]c2ccccc12 (stereo not shown) [Compound 13a]	18%			
COC(=O)C1CCCN1C(=O)Cc1c[nH]c2ccccc12 (stereo not shown) [Compound 14a, 1-(2-(1H-indol-3-yl)acetyl)pyrrolidine-2-carboxylic acid (14) methyl ester]	0%			
COc1cc(COC(=O)CCNC(=O)C(C)c2ccc(CC(C)C)cc2)cc(OC)c1OC (stereo not shown) [Compound 15, 3,4,5-Trimethoxybenzyl 3-(2-(4-isobutylphenyl)propanamido)propanoate]	35%	160 µM	73 to 75 °C	
COc1cc(COC(=O)CCNC(=O)C(C)c2cccc(C(=O)c3ccccc3)c2)cc(OC)c1OC (stereo not shown) [Compound 16, 3,4,5-Trimethoxybenzyl 3-(2-(3-benzoylphenyl)propanamido)propanoate]	91%			% Edema Inhibition [1]: 91 *** %; COX-1 % Inhibition (ovine COX-1): 28%; % inhibition of lipoxygenase (soybean LOX; at 150 μΜ): 20%; stability (hydrolysis, TLC) [2]: not hydrolyzed; stability (hydrolysis, TLC) [3]: not hydrolyzed
COc1ccc2cc([C@H](C)C(=O)NCCC(=O)OCc3cc(OC)c(OC)c(OC)c3)ccc2c1 [Compound 17, (S)-3,4,5-trimethoxybenzyl 3-(2-(6-methoxynaphthalen-2-yl)propanamido)propanoate]	23%	41 µM		
COc1cc(COC(=O)C2CCCN2C(=O)C(C)c2ccc(CC(C)C)cc2)cc(OC)c1OC (stereo not shown) [Compound 18]	49%	83 µM	85 to 87 °C	
COc1cc(COC(=O)C2CCCN2C(=O)C(C)c2cccc(C(=O)c3ccccc3)c2)cc(OC)c1OC (stereo not shown) [Compound 19, 3,4,5-Trimethoxybenzyl 1-(2-(3-benzoylphenyl)propanoyl)pyrrolidine-2 carboxylate]	51%	140 µM		
COc1ccc2cc(C(C)C(=O)N3CCCC3C(=O)OCc3cc(OC)c(OC)c(OC)c3)ccc2c1 (stereo not shown) [Compound 20, 3,4,5-Trimethoxybenzyl1-(2-(6-methoxynaphthalen-2-yl)propanoyl) pyrrolidine-2-carboxylate]	37%		50 to 53 °C	% inhibition of lipoxygenase (soybean LOX; at 100 μΜ): 40%
COc1cc(COC(=O)C(Cc2ccc(O)cc2)NC(=O)C(C)c2ccc(CC(C)C)cc2)cc(OC)c1OC (stereo not shown) [Compound 21, 3,4,5-Trimethoxybenzyl3-(4-hydroxyphenyl)-2-(2(4-isobutylphenyl)propanamido) propanoate]	67%	64 µM	86 to 88 °C	COX-1 % Inhibition (ovine COX-1): 51%; effect against lipid peroxidation [4]: poor
COc1cc(COC(=O)C(Cc2ccc(O)cc2)NC(=O)C(C)c2cccc(C(=O)c3ccccc3)c2)cc(OC)c1OC (stereo not shown) [Compound 22, 3,4,5-Trimethoxybenzyl 2-(2-(3-benzoylphenyl)propanamido)-3-(4-hydroxyphenyl) propanoate]	59%	85 µM	68 to 70 °C	effect against lipid peroxidation [4]: poor
COc1cc(COC(=O)C(C)NC(=O)Cc2c[nH]c3ccccc23)cc(OC)c1OC (stereo not shown) [Compound 23, 3,4,5-Trimethoxybenzyl 2-(2-(1H-indol-3-yl)acetamido)propanoate]	40.5%			% inhibition of lipoxygenase (soybean LOX; at 150 μΜ): 15%
COc1cc(COC(=O)C2CCCN2C(=O)Cc2c[nH]c3ccccc23)cc(OC)c1OC (stereo not shown) [Compound 24, 3,4,5-Trimethoxybenzyl1-(2-(1H-indol-3-yl)acetyl)pyrrolidine-2carboxylate]	0%	128 µM	58 to 60 °C	
CC(C)Cc1ccc(C(C)C(=O)O)cc1 (stereo not shown) [Ibuprofen, reference compound]	36%			% Edema Inhibition [1]: 36 ** %; COX-1 % Inhibition (ovine COX-1): 68%
O=C(O)Cc1c[nH]c2ccccc12 [Indole-3-acetic acid, reference compound]	0%			% Edema Inhibition [1]: inactive
CC(C(=O)O)c1cccc(C(=O)c2ccccc2)c1 (stereo not shown) [Ketoprofen]				COX-1 % Inhibition (ovine COX-1): 94%; COX-2 % Inhibition (human recombinant COX-2): 49%
COc1ccc2cc([C@H](C)C(=O)O)ccc2c1 [Naproxen]	11%			COX-1 % Inhibition (ovine COX-1): 34%; COX-1 % Inhibition (ovine COX-1; listed as naproxen): mild activity; COX-2 % Inhibition (human recombinant COX-2): 17%; COX-2 % Inhibition (human recombinant COX-2; listed as naproxen): weak inhibitor

From article PMC9000480, “Enhancement of the Anti-Inflammatory Activity of NSAIDs by Their Conjugation with 3,4,5-Trimethoxybenzyl Alcohol” (Molecules, 2022)
